The structures appear in SMILES notation.

The test concerns the target DNA-dependent protein kinase catalytic subunit (Homo sapiens, UniProt P78527). In words: Inhibition of DNA-PK (unknown origin).

Chain of DNA-dependent protein kinase catalytic subunit (P78527 whole entry): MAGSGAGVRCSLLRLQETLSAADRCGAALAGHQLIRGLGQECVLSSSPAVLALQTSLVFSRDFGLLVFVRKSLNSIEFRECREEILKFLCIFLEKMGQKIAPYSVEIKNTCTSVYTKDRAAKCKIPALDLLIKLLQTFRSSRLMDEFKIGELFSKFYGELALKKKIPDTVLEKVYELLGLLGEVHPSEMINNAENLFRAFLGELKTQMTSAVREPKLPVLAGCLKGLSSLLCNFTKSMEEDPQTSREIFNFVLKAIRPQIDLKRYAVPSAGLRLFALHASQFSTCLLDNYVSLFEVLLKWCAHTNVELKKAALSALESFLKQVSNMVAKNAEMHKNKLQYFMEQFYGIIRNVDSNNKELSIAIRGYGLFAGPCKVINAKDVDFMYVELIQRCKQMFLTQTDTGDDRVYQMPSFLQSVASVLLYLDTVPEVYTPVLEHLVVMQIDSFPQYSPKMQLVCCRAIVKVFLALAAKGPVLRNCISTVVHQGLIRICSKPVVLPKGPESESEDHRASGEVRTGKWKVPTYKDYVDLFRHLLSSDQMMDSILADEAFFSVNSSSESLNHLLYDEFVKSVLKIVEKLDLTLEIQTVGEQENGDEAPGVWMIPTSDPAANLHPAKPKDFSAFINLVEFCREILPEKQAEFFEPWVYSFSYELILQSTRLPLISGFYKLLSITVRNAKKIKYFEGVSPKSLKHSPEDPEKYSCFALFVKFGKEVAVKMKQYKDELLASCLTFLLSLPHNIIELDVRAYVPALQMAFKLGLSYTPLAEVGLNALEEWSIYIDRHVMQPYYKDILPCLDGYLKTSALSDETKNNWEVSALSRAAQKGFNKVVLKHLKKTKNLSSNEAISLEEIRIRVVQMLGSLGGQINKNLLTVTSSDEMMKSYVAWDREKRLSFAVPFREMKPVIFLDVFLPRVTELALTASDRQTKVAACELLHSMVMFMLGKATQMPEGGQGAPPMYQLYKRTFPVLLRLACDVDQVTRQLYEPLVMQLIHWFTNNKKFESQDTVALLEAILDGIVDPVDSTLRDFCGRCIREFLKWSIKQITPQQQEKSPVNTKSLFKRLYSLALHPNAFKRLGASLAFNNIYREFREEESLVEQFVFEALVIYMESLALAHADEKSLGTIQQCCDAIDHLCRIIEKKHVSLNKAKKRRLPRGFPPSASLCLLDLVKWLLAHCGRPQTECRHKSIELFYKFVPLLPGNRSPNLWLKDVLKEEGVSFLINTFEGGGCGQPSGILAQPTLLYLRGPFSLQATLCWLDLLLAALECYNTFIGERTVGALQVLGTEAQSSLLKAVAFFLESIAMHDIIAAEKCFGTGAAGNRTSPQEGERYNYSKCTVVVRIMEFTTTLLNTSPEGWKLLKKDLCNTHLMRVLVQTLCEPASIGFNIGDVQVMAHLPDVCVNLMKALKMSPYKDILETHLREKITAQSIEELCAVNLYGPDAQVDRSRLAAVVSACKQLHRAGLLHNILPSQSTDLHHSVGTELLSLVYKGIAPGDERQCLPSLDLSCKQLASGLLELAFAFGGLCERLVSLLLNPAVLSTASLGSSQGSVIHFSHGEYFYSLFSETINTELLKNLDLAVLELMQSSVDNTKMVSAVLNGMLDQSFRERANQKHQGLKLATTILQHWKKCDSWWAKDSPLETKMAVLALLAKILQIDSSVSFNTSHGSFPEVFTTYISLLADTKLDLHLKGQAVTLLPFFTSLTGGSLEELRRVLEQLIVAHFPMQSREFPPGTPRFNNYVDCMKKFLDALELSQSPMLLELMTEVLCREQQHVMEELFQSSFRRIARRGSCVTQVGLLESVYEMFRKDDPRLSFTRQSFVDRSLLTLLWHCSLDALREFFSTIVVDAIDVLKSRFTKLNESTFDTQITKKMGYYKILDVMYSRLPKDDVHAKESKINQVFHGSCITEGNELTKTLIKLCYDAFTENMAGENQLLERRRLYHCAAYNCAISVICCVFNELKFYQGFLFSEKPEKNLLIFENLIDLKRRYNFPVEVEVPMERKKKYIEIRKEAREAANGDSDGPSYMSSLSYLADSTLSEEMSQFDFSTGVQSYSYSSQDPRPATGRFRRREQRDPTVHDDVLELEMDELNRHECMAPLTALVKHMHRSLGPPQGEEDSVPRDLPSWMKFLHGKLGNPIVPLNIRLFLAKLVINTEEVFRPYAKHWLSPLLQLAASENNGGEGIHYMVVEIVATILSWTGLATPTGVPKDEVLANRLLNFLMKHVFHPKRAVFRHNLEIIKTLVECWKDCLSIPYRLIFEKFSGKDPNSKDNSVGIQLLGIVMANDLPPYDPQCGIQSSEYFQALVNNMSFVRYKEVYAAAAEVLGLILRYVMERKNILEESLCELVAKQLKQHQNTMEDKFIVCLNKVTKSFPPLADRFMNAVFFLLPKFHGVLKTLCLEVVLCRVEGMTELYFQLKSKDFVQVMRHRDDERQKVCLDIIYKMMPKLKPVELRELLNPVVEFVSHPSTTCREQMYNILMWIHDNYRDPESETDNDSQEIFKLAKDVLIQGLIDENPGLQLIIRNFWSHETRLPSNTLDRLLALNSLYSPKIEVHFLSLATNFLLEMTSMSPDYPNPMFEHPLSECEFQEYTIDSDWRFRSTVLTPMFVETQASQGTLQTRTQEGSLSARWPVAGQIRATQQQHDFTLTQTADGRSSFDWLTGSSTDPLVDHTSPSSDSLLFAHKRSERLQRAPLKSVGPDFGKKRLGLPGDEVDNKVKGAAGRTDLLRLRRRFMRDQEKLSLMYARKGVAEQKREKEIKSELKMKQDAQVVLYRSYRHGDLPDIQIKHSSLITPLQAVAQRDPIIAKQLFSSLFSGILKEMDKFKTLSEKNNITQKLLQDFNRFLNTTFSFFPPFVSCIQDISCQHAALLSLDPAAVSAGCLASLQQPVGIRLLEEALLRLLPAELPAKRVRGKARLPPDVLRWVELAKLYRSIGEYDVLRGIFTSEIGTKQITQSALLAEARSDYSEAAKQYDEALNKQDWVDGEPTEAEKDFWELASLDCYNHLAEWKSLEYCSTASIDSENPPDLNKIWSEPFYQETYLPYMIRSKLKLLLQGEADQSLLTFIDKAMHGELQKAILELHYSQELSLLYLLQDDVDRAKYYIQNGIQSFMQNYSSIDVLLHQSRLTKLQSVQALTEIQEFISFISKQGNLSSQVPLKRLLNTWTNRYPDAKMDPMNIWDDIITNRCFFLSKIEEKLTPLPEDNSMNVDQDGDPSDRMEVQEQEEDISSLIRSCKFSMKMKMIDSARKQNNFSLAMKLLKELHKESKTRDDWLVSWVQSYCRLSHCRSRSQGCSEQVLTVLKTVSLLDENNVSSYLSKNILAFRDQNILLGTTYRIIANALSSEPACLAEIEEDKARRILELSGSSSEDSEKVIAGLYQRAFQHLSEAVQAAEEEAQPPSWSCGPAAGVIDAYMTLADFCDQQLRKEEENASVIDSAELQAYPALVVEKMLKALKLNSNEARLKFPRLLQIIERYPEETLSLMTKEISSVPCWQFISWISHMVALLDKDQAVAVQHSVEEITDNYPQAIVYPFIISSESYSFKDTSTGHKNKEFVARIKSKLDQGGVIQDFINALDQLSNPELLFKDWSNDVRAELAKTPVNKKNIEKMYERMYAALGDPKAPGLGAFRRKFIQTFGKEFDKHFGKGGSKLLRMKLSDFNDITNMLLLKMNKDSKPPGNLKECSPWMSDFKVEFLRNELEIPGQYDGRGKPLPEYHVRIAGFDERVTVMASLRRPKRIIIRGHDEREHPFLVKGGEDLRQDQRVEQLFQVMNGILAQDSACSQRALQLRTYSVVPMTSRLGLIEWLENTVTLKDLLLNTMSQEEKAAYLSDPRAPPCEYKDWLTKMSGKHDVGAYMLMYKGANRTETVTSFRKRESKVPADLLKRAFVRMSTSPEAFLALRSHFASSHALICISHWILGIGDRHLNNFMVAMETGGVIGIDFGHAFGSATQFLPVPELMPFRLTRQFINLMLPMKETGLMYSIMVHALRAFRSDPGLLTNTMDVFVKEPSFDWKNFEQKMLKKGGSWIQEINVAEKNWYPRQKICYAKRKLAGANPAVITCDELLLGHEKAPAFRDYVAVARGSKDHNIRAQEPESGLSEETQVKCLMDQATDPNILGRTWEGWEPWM

Regarding `COc1ncc(-c2cc3c(c(NC(=O)CN4CCOCC4)c2)COC3)cc1NS(C)(=O)=O`, the IC50 is 2510 nM.

As usually defined, the IC50 is the concentration that inhibits the measured activity by half. The low end stands for inhibition by little substance, the high end for a need for much substance.

The record behind these values is BindingDB's records for doi:10.1021/acs.jmedchem.6b00799 (Glaxosmithkline R&D, 2016).
